# Measurements reported in patent US20240381872A1, “SUBSTITUTED 2,3-DIHYDRO[1,3]THIAZOLO[4,5-B]PYRIDINES, SALTS THEREOF AND THEIR USE AS HERBICIDALLY ACTIVE SUBSTANCES” (BAYER AKTIENGESELLSCHAFT, priority 2021, published 2024).
# How the values were obtained:
# Format in all cases: in vivo
# Veronica persica (VERPE) [1] = assay: Herbicidal post-emergence action, section B (Table B10); settings: Veronica persica, post-emergence, 504 h; application rate 320 g/ha; visual rating about 3 weeks after treatment vs untreated controls; read-out: post-emergence activity against VERPE in %
# Summary of the method: (§1)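 Potted weeds in sandy loam are treated post-emergence at the one-leaf stage, 2 to 3 weeks after sowing. The spray is an aqueous WP or EC preparation with 0.5% additive at 600 liters per hectare. Percent activity is assessed by eye after about 3 weeks versus untreated controls.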
# Stellaria media (STEME) = assay: Herbicidal post-emergence action, section B (Table B9); settings: Stellaria media, post-emergence, 504 h; application rate 320 g/ha; visual rating about 3 weeks after treatment vs untreated controls; read-out: post-emergence activity against STEME in %
# Summary of the method: as §1
# [2] = tested on: Amaranthus retroflexus (AMARE); assay: Herbicidal post-emergence action, section E (Table E3); settings: Amaranthus retroflexus, post-emergence, 504 h; application rate 320 g/ha; assessed visually after ca. 3 weeks; read-out: post-emergence activity against AMARE in %
# Source text: Seeds of mono- and dicotyledonous weed plants and crop plants were sown, in plastic or organic planting pots, in sandy loam, covered with soil and grown in a greenhouse under controlled growth conditions. 2 to 3 weeks after sowing, the test plants were sprayed in the single-leaf stage. The compounds according to the invention, formulated in form of wettable powders (WP) or as emulsifiable concentrates (EC), were sprayed onto the green plant parts as aqueous suspension or emulsion, with the addition of 0.5% of an additive, at an application rate of 600 l of water/ha (converted). The test plants were placed in the greenhouse for ca. 3 weeks under optimum growth conditions, and then the effect of the preparations was assessed visually in comparison with untreated controls (herbicidal effect in percent (%): 100% effect=plants have died off, 0% effect=as control plants).
# Lolium rigidum (LOLRI) [3] = assay: Herbicidal post-emergence action, section B (Table B5); settings: Lolium rigidum, post-emergence, 504 h; application rate 1280 g/ha; visual rating about 3 weeks after treatment vs untreated controls; read-out: post-emergence activity against LOLRI in %
# Summary of the method: as §1
# Glycine max (GLXMA) = assay: Pre-emergence effects on crop plants, section D (Table D4); settings: application rate 80 g/ha; visual grading after ca. 3 weeks
# Summary of the method: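 Pre-emergence soil-surface spray, 320 g/ha or below, 600 l water/ha + 0.5% additive; WP/EC formulations; sandy loam; greenhouse; visual % damage vs untreated at ~3 wk.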
# Lolium rigidum (LOLRI) [4] = assay: Herbicidal pre-emergence action, section A (Table A5); settings: Lolium rigidum, pre-emergence, 504 h; application rate 1280 g/ha; visual grading after ca. 3 weeks vs untreated controls; read-out: pre-emergence activity against LOLRI in %
# Summary of the method: (§2)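 Percent herbicidal effect, visually graded about 3 weeks post-treatment against untreated pots, reflects pre-emergence application of WP or EC formulations to the soil surface over seeds sown in sandy loam, using 0.5% additive and 600 l of water per hectare.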
# [5] = tested on: Abutilon theophrasti (ABUTH); assay: Herbicidal pre-emergence action, section C (Table C1); settings: Abutilon theophrasti, pre-emergence, 504 h; application rate 80 g/ha; visual grading after ca. 3 weeks vs untreated controls; read-out: pre-emergence activity against ABUTH in %
# Source text: Seeds of mono- and dicotyledonous weed plants and crop plants were sown, in plastic or organic planting pots, in sandy loam and covered with soil. The compounds according to the invention, formulated in the form of wettable powders (WP) or as emulsifiable concentrates (EC), were applied to the surface of the covering soil as aqueous suspension or emulsion, with the addition of 0.5% of an additive, at an application rate of 600 l of water/ha (converted). Following treatment, the pots were placed in a greenhouse and kept under optimum growth conditions for the test plants. The visual grading of the damage to the test plants was carried out after ca. 3 weeks in comparison to untreated controls (herbicidal effect in percent (%): 100% effect=plants have died off, 0% effect=as control plants).
# Veronica persica (VERPE) [6] = assay: Herbicidal post-emergence action, section E (Table E9); settings: Veronica persica, 504 h, application rate 80 g/ha, visual assessment ca. 3 weeks after spraying, read-out: post-emergence activity against VERPE in %
# Summary of the method: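 Effect was rated visually as percent damage relative to untreated plants (100% = died off) about 3 weeks after treatment. Single-leaf-stage plants, 2 to 3 weeks old and grown in sandy loam under glass, had received WP or EC formulations sprayed in water with 0.5% additive at 600 l/ha.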
# [7] = tested on: Amaranthus retroflexus (AMARE); assay: Herbicidal pre-emergence action, section A (Table A11); settings: Amaranthus retroflexus, 504 h, application rate 320 g/ha, read-out: pre-emergence activity against AMARE in %
# Summary of the method: as §2
# [8] = tested on: Alopecurus myosuroides (ALOMY); assay: Herbicidal pre-emergence action, section C (Table C2); settings: Alopecurus myosuroides, pre-emergence, 504 h; application rate 80 g/ha; visual grading after ca. 3 weeks vs untreated controls; read-out: pre-emergence activity against ALOMY in %
# Summary of the method: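 Pre-emergence greenhouse test: visual percent damage scored about 3 weeks after treatment, relative to untreated pots (100% = dead, 0% = no effect). Formulated compounds (WP or EC, plus 0.5% additive) were applied in 600 l water/ha to the covering soil over seeds sown in sandy loam.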
# Setaria viridis (SETVI) = assay: Herbicidal post-emergence action, section B (Table B8); settings: Setaria viridis, post-emergence, 504 h; application rate 320 g/ha; visual rating about 3 weeks after treatment vs untreated controls; read-out: post-emergence activity against SETVI in %
# Summary of the method: as §1
compound,measurement,setting,value
"CCS(=O)(=O)N1CSc2cc(C)c(-c3ccccc3F)nc21 [Example I-060, 3-(ethylsulfonyl)-5-(2-fluorophenyl)-6-methyl-2,3-dihydro[1,3]thiazolo[4,5-b]pyridine]",pest or weed control at 320 g/ha,Veronica persica (VERPE) [1],90%
same,pest or weed control at 320 g/ha,Stellaria media (STEME),90%
same,pest or weed control at 320 g/ha,[2],90%
same,pest or weed control at 1280 g/ha,Lolium rigidum (LOLRI) [3],90%
same,pre-emergence activity against GLXMA in % (crop plant damage),Glycine max (GLXMA),0%
same,pest or weed control at 1280 g/ha,Lolium rigidum (LOLRI) [4],100%
same,pest or weed control at 80 g/ha,[5],90%
same,pest or weed control at 80 g/ha,Veronica persica (VERPE) [6],80%
same,pest or weed control at 320 g/ha,[7],90%
same,pest or weed control at 80 g/ha,[8],100%
same,pest or weed control at 320 g/ha,Setaria viridis (SETVI),90%
